Where a SMILES comes first, the peptide text is derived from it. [ ]: non-standard residue; d: D form. The star is where a group is joined. pS = N[CH](COP(=O)(O)O)C(=O)O; Agmatine = N=C(N)NCCCCN*; Morpholide = C1CN(*)CCO1
What follows are molecules tested against T1, Pin1 WW domain (Pin1–HRP) (Homo sapiens, UniProt Q13526) (assay: ELEBA primary screening assay of the library). Conditions: separate plate of groups A and B (L2 control 85.0443); crude library members; DMSO = 100%; mean of N = 2.
T1 construct: purchased R&D Systems
Type: binding
Experimental: The library was screened by the ELEBA we reported previously.[44] The crude products resulting from diethyl ether precipitation were used for the primary and secondary ELEBA without additional purification. The concentrations of the crude products were estimated based on quantitative yields; actual concentrations were thus lower, depending on yield and purity. The library products were dissolved in DMSO as stock solutions for assays. […] Recombinant human Pin1 conjugated to horseradish peroxidase (Pin1–HRP) was used in the binding assays.[44] Fmoc-VPRpTPVGGGK-NH2 L2 was used as the positive control and DMSO was used as the negative control on each plate. The percent of Pin1–HRP bound to the plate was calculated by normalizing the binding with DMSO to be 100%. In the primary assays (Figure S1), 14 of the best library members were identified: 1{2,d}, 1{18,f}, 1{20,f}, 1{10, l}, 1{13, l}, 1{18, l}, 1{20, l}, 1{10, n}, 1{18, n}, 1{19, n}, 1{2, n}, 1{20, n}, 1{14, o}, 1{3, o}. In the secondary assay, these ligands were measured again at 270 μM, and three hits, 1{2, d}, 1{18, l} and 1{2, n}, were chosen for further analysis (Figure 3).
The Pin1 WW domain ligand, Fmoc–VPRpTPVGGGK–NH2, (100 μL/well, 245 μM stock solution) was covalently attached to a 96-well plate through the ε-amino group of the Lys side chain at pH 11.0, as published.[44] Ligands were dissolved in DMSO at stock concentrations of ca. 50 mM by weight. Competitive binding with plate-linked Fmoc–VPRpTPVGGGK–NH2L1 of pSer–Pro dipeptides was measured at ca. 600 μM for primary screening. In the primary assays, all library members were screened with the crude products. 1{1-21, d} were measured as mixtures of cis- and trans-isomers. Library members synthesized from racemic reagents, such as 1{1-21, c}, 1{1-21, l}, 1{1-21, q}, 1{3, a-q} and 1{8, a-q} were measured as diastereomeric mixtures. The library members were dissolved in DMSO as stock solutions with a concentration of about 37 mM based on estimated yields. The DMSO stock solution of each compound (4 μL) was added into a solution of recombinant Pin1–HRP (R&D Systems) in a PBS buffer with 2% BSA (pH = 7.3). DMSO (4 μL) was used as a negative control. The final volume of the solution was 250 μL, the final concentration of Pin1–HRP was 200 pM, and the estimated final compound concentration was 590 μM. The resulting solution was preincubated for 30 min at ambient temperature, and was added into two wells (100 μL each, for assay in duplicate) of the ligand-linked plate. The solutions were incubated for another 1 h. The solutions were removed by inverting and shaking the plate, and the plate was washed with buffer ([…], and 0.05% Tween 20 in PBS at pH 7.3) three times. A 1:1 solution of hydrogen peroxide and 3,3,5,5′-tetramethylbenzidine (100 μL) was added into each plate well, and incubated in the dark for 20 min. A 2N H2SO4 solution (50 μL) was added to each well to quench the reaction, and the absorbance of was determined at 450 nm. The percentage of Pin1–HRP bound to the plate (% binding) was calculated by eq 1. To calculate the absorbance of a plate well in eq 1, the blank ligand-linked plate was predetermined at the same wavelength, and the absorbance of the blank well was subtracted from the absorbance of the same well containing the final solution. [drawing 2] 1 […]
The Fmoc-Ser(2- […]
cyanoethylphosphate)-OH product was cleaved from the resin with TFA. 1H NMR indicated the presence of the Fmoc group, implying that the substrate was successfully attached to the resin (data not shown). To develop the coupling methods, 2-(2-naphthyl)ethylamine and propionic acid were reacted with the pSer–Pro resin. The resulting propanoyl-pSer–Pro–(2-(2-naphthyl)ethyl)-amide (1H NMR below) was excluded from the library assays.
Figure S1 (following pages). Ligands (group A – O) were screening using ELEBA at ca. 266 µM.
Fmoc-VPRpTPVGGGK-NH2 L2 was used as positive control at 76-87 µM from stock solutions […]
of 4.3-4.8 mM. […]

T1 sequence (Q13526 whole entry, the tested form may be a part): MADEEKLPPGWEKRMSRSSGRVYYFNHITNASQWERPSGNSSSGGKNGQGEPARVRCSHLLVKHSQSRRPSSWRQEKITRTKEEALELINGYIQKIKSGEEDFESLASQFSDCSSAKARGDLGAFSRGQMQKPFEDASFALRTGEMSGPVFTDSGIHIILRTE

SMILES	% of Pin1-HRP bound to plate-linked ligand
O=C(C=Cc1c[nH]cn1)NC(COP(=O)(O)O)C(=O)N1CCCC1C(=O)NCCc1ccc(O)cc1 (stereo not shown) [1{4,b}]	124.444%
CC(=O)NC(COP(=O)(O)O)C(=O)N1CCCC1C(=O)N(C)CC(C)c1ccccc1 (mixture of isomers) [1{3,a}]	118.382%
COC(=O)C=C(C)NC(=O)C1CCCN1C(=O)C(COP(=O)(O)O)NC(=O)C=Cc1c[nH]cn1 (stereo not shown) [1{6,b}]	111.464%
CC(=O)NC(COP(=O)(O)O)C(=O)N1CCCC1C(=O)NCCc1c[nH]cn1 (stereo not shown) [1{9,a}]	109.367%
O=C(C=Cc1c[nH]cn1)NC(COP(=O)(O)O)C(=O)N1CCCC1C(=O)N1CCCC1 (stereo not shown) [1{1,b}]	117.035%
CCN(CC)CCCCN(C)C(=O)[C@@H]1CCCN1C(=O)[C@H](COP(=O)(O)O)NC(=O)/C=C/c1c[nH]cn1 [1{7,b}]	108.279%
CC1CCCCN1CCCNC(=O)C1CCCN1C(=O)C(COP(=O)(O)O)NC(=O)C=Cc1c[nH]cn1 (mixture of isomers) [1{8,b}]	102.481%

The next lines start with the values.

% of Pin1-HRP bound to plate-linked ligand	SMILES
87.6813%	O=C(/C=C/c1c[nH]cn1)N[C@@H](COP(=O)(O)O)C(=O)N1CCC[C@H]1C(=O)NNC(=O)c1ccco1 [1{18,b}]
112.945%	CC(=O)NC(COP(=O)(O)O)C(=O)N1CCCC1C(=O)NCCCCNC(=N)N (stereo not shown) [1{16,a}] (Ac-[pS]-Pro-Agmatine; configuration not given here)
96.4764%	O=C(/C=C/c1c[nH]cn1)N[C@@H](COP(=O)(O)O)C(=O)N1CCC[C@H]1C(=O)N1CCC(N2CCCCC2)CC1 [1{13,b}]
94.4757%	O=C(C=Cc1c[nH]cn1)NC(COP(=O)(O)O)C(=O)N1CCCC1C(=O)NCCCn1ccnc1 (stereo not shown) [1{12,b}]
94.5777%	N=C(N)NCCCCNC(=O)[C@@H]1CCCN1C(=O)[C@H](COP(=O)(O)O)NC(=O)/C=C/c1c[nH]cn1 [1{16,b}]
98.3254%	O=C(C=Cc1c[nH]cn1)NC(COP(=O)(O)O)C(=O)N1CCCC1C(=O)NC1CCN(Cc2ccccc2)CC1 (stereo not shown) [1{15,b}]
109.194%	CC(=O)NC(COP(=O)(O)O)C(=O)N1CCCC1C(=O)NCCCn1ccnc1 (stereo not shown) [1{12,a}]
109.953%	O=C(C=Cc1c[nH]cn1)NC(COP(=O)(O)O)C(=O)N1CCCC1C(=O)NCCc1c[nH]c2ccccc12 (stereo not shown) [1{14,b}]
115.484%	CC(=O)N[C@@H](COP(=O)(O)O)C(=O)N1CCC[C@H]1C(=O)N1CCOCC1 [1{20,a}] (Ac-[pS]-Pro-Morpholide)

Source: publication PMC11542186, “Pin1 WW Domain Ligand Library Synthesized with an Easy Solid-Phase Phosphorylating Reagent” (Biochemistry, 2024)
